Results from patent US11339130B1 (Blade Therapeutics, Inc., priority 2016, dated 2022).
pIC50: −log10 of the molar value.

How the values were obtained:
[1] = target: T1, Human Calpain 2/NS1 (Homo sapiens, UniProt P17655); experiment: Calpain inhibition continuous fluorescence (FRET) assay, Human Calpain 2/NS1; assay type: biochemical; details: read-out: Human Calpain 2/NS1 IC50
T1 sequence (P17655 1-700): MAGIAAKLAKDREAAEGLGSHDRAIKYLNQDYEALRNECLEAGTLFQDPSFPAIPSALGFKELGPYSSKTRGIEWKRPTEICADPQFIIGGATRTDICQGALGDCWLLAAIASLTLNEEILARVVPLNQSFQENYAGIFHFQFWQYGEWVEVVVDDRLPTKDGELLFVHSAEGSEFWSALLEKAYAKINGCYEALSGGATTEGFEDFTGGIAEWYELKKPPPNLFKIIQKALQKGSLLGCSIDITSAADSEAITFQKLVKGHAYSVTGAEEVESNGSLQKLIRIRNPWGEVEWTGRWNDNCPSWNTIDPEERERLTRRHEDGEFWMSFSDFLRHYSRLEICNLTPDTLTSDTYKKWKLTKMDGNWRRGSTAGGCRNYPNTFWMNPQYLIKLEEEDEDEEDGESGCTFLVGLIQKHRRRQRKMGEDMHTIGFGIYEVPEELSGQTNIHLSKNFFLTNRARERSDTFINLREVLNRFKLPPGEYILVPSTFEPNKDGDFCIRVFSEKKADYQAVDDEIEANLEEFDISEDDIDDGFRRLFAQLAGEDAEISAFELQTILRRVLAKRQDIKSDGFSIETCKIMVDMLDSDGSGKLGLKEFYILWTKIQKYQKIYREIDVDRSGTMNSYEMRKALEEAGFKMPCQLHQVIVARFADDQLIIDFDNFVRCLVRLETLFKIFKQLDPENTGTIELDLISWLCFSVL
T1 sequence (P04632 1-268 partner): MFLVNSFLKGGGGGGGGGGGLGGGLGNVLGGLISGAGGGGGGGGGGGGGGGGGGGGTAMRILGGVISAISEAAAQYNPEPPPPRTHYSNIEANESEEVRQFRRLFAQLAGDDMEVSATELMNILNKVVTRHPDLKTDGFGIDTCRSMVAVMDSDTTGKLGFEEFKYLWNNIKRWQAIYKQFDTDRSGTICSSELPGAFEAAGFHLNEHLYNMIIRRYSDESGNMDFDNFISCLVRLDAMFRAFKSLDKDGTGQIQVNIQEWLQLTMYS
In short: (§1)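 Calpain activity is measured kinetically with a quenched FRET peptide in 50 mM Tris pH 7.5, 100 mM NaCl, 1 mM DTT, with CaCl2 triggering activation. Rates over 1-5 min are plotted against log inhibitor to obtain IC50 by 4-parameter logistic fitting.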

[2] = target: T2, Human Calpain 1/NS1 (Homo sapiens, UniProt P07384); experiment: Calpain inhibition continuous fluorescence (FRET) assay, Human Calpain 1/NS1; assay type: biochemical; details: read-out: Human Calpain 1/NS1 IC50
T2 sequence (P07384 1-714): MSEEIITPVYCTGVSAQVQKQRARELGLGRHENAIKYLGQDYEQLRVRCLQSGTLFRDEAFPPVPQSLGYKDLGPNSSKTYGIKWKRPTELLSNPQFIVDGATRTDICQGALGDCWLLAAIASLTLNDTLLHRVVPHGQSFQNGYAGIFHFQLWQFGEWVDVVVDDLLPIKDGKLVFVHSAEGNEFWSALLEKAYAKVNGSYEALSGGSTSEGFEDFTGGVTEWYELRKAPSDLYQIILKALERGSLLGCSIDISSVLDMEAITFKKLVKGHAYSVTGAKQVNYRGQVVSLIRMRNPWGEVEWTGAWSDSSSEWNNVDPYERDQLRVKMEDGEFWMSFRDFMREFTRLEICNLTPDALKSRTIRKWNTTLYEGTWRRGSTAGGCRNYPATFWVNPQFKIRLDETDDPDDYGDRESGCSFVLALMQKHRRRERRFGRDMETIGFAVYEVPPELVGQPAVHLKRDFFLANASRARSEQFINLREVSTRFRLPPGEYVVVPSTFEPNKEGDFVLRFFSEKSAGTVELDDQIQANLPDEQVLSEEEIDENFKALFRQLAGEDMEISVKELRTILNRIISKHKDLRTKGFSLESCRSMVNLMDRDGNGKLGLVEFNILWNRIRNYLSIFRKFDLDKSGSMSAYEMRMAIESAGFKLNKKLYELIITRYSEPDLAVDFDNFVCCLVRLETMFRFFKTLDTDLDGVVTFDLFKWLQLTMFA
T2 sequence (P04632 1-268 partner): T1 sequence (P04632 1-268 partner)
In short: as §1

[3] = target: T3, Human Calpain 9/NS1 (Homo sapiens, UniProt O14815); experiment: Calpain inhibition continuous fluorescence (FRET) assay, Human Calpain 9/NS1; assay type: biochemical; details: read-out: Human Calpain 9/NS1 IC50
T3 sequence (O14815 1-690): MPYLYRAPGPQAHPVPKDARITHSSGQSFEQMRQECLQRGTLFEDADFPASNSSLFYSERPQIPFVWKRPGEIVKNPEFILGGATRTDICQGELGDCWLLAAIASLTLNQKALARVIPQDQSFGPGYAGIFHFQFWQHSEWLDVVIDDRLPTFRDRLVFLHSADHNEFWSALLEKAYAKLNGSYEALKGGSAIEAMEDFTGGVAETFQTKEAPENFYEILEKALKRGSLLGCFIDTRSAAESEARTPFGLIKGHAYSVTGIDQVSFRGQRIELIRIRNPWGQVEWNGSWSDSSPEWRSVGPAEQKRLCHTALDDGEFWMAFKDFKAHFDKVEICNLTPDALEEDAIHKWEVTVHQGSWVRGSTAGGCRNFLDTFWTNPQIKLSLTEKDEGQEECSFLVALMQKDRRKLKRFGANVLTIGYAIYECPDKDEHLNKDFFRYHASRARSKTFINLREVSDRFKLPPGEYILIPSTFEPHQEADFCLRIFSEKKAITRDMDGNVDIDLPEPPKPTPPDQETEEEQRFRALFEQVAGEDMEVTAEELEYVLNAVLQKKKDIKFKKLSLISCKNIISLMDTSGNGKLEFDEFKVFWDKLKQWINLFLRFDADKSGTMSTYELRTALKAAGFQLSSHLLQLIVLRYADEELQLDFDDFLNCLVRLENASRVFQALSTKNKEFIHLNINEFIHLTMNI
T3 sequence (P04632 1-268 partner): T1 sequence (P04632 1-268 partner)
In short: as §1

[4] = tested on: Calpain activity in SH-SY5Y cells (SBDP-150); experiment: SH-SY5Y Spectrin western blot assay (SBDP-150 breakdown product, A23187-induced); assay type: cell-based; details: Homo sapiens; SH-SY5Y cells, A23187-induced SBDP-150, western blot; read-out: SH-SY5Y Spectrin IC50
[5] = tested on: Calpain activity in SH-SY5Y cells; experiment: SH-SY5Y + AMC fluorescence assay (Suc-LLVY-AMC substrate); assay type: cell-based; details: read-out: SH-SY5Y + AMC IC50

## Cc1nc(-c2ccccc2)c(C(=O)N[C@@H](Cc2ccccc2)C(O)C(N)=O)o1 (stereo partly drawn) [Compound 360, N-((2S)-4-amino-3-hydroxy-4-oxo-1-phenylbutan-2-yl)-2-methyl-4-phenyloxazole-5-carboxamide]
[1]
  pIC50: < 5.00
[2]
  pIC50: < 5.00
[3]
  pIC50: < 5.00
[4]
  pIC50: < 4.60
[5]
  pIC50: < 4.60

## Cc1nc(-c2cccc(F)c2F)c(C(=O)NC(Cc2ccccc2)C(=O)C(N)=O)o1 (centres unmarked) [Compound 361, N-(4-amino-3,4-dioxo-1-phenylbutan-2-yl)-4-(2,3-difluorophenyl)-2-methyloxazole-5-carboxamide]
[1]
  pIC50: > 5.52
[2]
  pIC50: > 5.52
[3]
  pIC50: > 5.52
[4]
  pIC50: > 5.00
[5]
  pIC50: > 5.00

## C#CCOCc1ccc(-c2nsnc2C(=O)N[C@@H](Cc2ccccc2)C(=O)CF)cc1 [Compound 362, (S)—N-(4-fluoro-3-oxo-1-phenylbutan-2-yl)-4-(4-((prop-2-yn-1-yloxy)methyl)phenyl)-1,2,5-thiadiazole-3-carboxamide]
[1]
  pIC50: > 5.52
[2]
  pIC50: > 5.52
[3]
  pIC50: > 5.52
[4]
  pIC50: > 5.00
[5]
  pIC50: < 4.60

## NC(=O)C(=O)C(Cc1ccccc1)NC(=O)c1nsnc1-c1ccc(CNC(=O)c2ccc(F)cc2)cc1 (centres unmarked) [Compound 363, N-(4-amino-3,4-dioxo-1-phenylbutan-2-yl)-4-(4-((4-fluorobenzamido)methyl)phenyl)-1,2,5-thiadiazole-3-carboxamide]
[1]
  pIC50: > 5.52
[2]
  pIC50: > 5.52
[3]
  pIC50: > 5.52
[4]
  pIC50: > 5.00
[5]
  pIC50: < 4.60

## NC(=O)C(=O)C(Cc1ccccc1)NC(=O)c1nsnc1-c1cnccn1 (centres unmarked) [Compound 365, N-(4-amino-3,4-dioxo-1-phenylbutan-2-yl)-4-(pyrazin-2-yl)-1,2,5-thiadiazole-3-carboxamide]
[1]
  pIC50: > 5.52
[2]
  pIC50: > 5.52
[3]
  pIC50: > 5.52
[4]
  pIC50: > 5.00
[5]
  pIC50: > 5.00

## NC(=O)C(=O)C(Cc1ccccc1)NC(=O)c1nsnc1Br (centres unmarked) [Compound 366, N-(4-amino-3,4-dioxo-1-phenylbutan-2-yl)-4-bromo-1,2,5-thiadiazole-3-carboxamide]
[1]
  pIC50: > 5.52
[2]
  pIC50: > 5.52
[3]
  pIC50: > 5.52
[4]
  pIC50: 4.60 to 5.00
[5]
  pIC50: > 5.00

## NC(=O)C(=O)C(Cc1ccccc1)NC(=O)c1nsnc1-c1cccc2c1OCO2 (centres unmarked) [Compound 367, N-(4-amino-3,4-dioxo-1-phenylbutan-2-yl)-4-(benzo[d][1,3]dioxol-4-yl)-1,2,5-thiadiazole-3-carboxamide]
[1]
  pIC50: > 5.52
[2]
  pIC50: > 5.52
[3]
  pIC50: > 5.52
[4]
  pIC50: > 5.00
[5]
  pIC50: > 5.00

## NC(=O)C(=O)C(Cc1ccccc1)NC(=O)c1nsnc1-c1cccc(COCc2ccccc2)c1 (centres unmarked) [Compound 370, N-(4-amino-3,4-dioxo-1-phenylbutan-2-yl)-4-(3-((benzyloxy)methyl)phenyl)-1,2,5-thiadiazole-3-carboxamide]
[1]
  pIC50: > 5.52
[2]
  pIC50: > 5.52
[3]
  pIC50: > 5.52
[4]
  pIC50: 4.60 to 5.00
[5]
  pIC50: < 4.60

## NC(=O)C(=O)C(Cc1ccccc1)NC(=O)c1nsnc1-c1ccncc1 (centres unmarked) [Compound 371, N-(4-amino-3,4-dioxo-1-phenylbutan-2-yl)-4-(pyridin-4-yl)-1,2,5-thiadiazole-3-carboxamide]
[1]
  pIC50: > 5.52
[2]
  pIC50: > 5.52
[3]
  pIC50: > 5.52
[4]
  pIC50: > 5.00
[5]
  pIC50: > 5.00

## NC(=O)C(=O)C(Cc1ccccc1)NC(=O)c1nsnc1-c1cccc(F)c1F (centres unmarked) [Compound 372, N-(4-amino-3,4-dioxo-1-phenylbutan-2-yl)-4-(2,3-difluorophenyl)-1,2,5-thiadiazole-3-carboxamide]
[1]
  pIC50: > 5.52
[2]
  pIC50: > 5.52
[3]
  pIC50: > 5.52
[4]
  pIC50: > 5.00
[5]
  pIC50: > 5.00

## NC(=O)C(=O)C(Cc1ccccc1)NC(=O)c1nsnc1-c1ccccn1 (centres unmarked) [Compound 373, N-(4-amino-3,4-dioxo-1-phenylbutan-2-yl)-4-(pyridin-2-yl)-1,2,5-thiadiazole-3-carboxamide]
[1]
  pIC50: > 5.52
[2]
  pIC50: > 5.52
[3]
  pIC50: > 5.52
[4]
  pIC50: > 5.00
[5]
  pIC50: > 5.00

## NC(=O)C(=O)C(Cc1ccccc1)NC(=O)c1nsnc1-c1ccncn1 (centres unmarked) [Compound 374, N-(4-amino-3,4-dioxo-1-phenylbutan-2-yl)-4-(pyrimidin-4-yl)-1,2,5-thiadiazole-3-carboxamide]
[1]
  pIC50: > 5.52
[2]
  pIC50: > 5.52
[3]
  pIC50: > 5.52
[4]
  pIC50: > 5.00
[5]
  pIC50: > 5.00

## Cc1c(F)cccc1-c1nsnc1C(=O)NC(Cc1ccccc1)C(=O)C(N)=O (centres unmarked) [Compound 375, N-(4-amino-3,4-dioxo-1-phenylbutan-2-yl)-4-(3-fluoro-2-methylphenyl)-1,2,5-thiadiazole-3-carboxamide]
[1]
  pIC50: > 5.52
[2]
  pIC50: > 5.52
[3]
  pIC50: > 5.52
[4]
  pIC50: > 5.00
[5]
  pIC50: > 5.00

## NC(=O)C(=O)[C@H](Cc1ccccc1)NC(=O)c1nsnc1-c1ccccc1 [Compound 376, (S)—N-(4-amino-3,4-dioxo-1-phenylbutan-2-yl)-4-phenyl-1,2,5-thiadiazole-3-carboxamide]
[1]
  pIC50: > 5.52
[2]
  pIC50: > 5.52
[3]
  pIC50: > 5.52
[4]
  pIC50: > 5.00
[5]
  pIC50: > 5.00

## NC(=O)C(=O)C(Cc1ccccc1)NC(=O)c1nsnc1-c1cccnc1 (centres unmarked) [Compound 377, N-(4-amino-3,4-dioxo-1-phenylbutan-2-yl)-4-(pyridin-3-yl)-1,2,5-thiadiazole-3-carboxamide]
[1]
  pIC50: > 5.52
[2]
  pIC50: > 5.52
[3]
  pIC50: > 5.52
[4]
  pIC50: > 5.00
[5]
  pIC50: 4.60 to 5.00

## NC(=O)C(=O)C(Cc1ccccc1)NC(=O)c1nsnc1-c1ccc2c(c1)C(=O)N(Cc1ccccc1)C2 (centres unmarked) [Compound 378, N-(4-amino-3,4-dioxo-1-phenylbutan-2-yl)-4-(2-benzyl-3-oxoisoindolin-5-yl)-1,2,5-thiadiazole-3-carboxamide]
[1]
  pIC50: > 5.52
[2]
  pIC50: > 5.52
[3]
  pIC50: > 5.52
[4]
  pIC50: > 5.00
[5]
  pIC50: < 4.60
